The subject of data set [1] is PHHs in spheroids. In words: LDH production, hepatotoxicant sensitivity, spheroids. The class given is cell-based. As to conditions: Homo sapiens, 48 h, read-out: EC50, LDH production.
In data set [2] the test system is PHHs in spheroids. As to conditions: spheroids vs liver MPS.
Data set [3] in a line: in vitro. As to conditions: human, primary human hepatocytes (PHHs) in 2D sandwich cultures.
For data set [4], the system named is CYP3A4. The data set can be described thus: in vitro. As to conditions: human, primary human hepatocytes (PHHs) cultured as 3D spheroids.
The subject of data set [5] is PHHs in sandwich cultures. In words: LDH production, hepatotoxicant sensitivity, sandwich cultures. Type of data set: cell-based. As to conditions: Homo sapiens, 48 h, read-out: EC50, LDH production.
The test system of data set [6] is PHHs in sandwich cultures. In words: Albumin production, hepatotoxicant sensitivity, sandwich cultures. The class given is cell-based. As to conditions: Homo sapiens, 48 h, read-out: EC50, albumin secretion.
In data set [7] the test system is PHHs in spheroids. The data set can be described thus: Albumin production, hepatotoxicant sensitivity, spheroids. Type of data set: cell-based. As to conditions: Homo sapiens, 48 h, read-out: EC50, albumin secretion.
Data set [8] has as its system PHHs in sandwich cultures. As to conditions: sandwich cultures vs liver MPS.
A short description of data set [9]: in vitro. As to conditions: human, primary human hepatocytes (PHHs) cultured as 3D spheroids.
Data set [10] has as its system CYP3A4. In words: in vitro. As to conditions: human, primary human hepatocytes (PHHs) in 2D sandwich cultures.
Data set [11] relates to CYP3A4. The data set can be described thus: in vitro. As to conditions: human, primary human hepatocytes (PHHs) cultured in liver MPS.
Data set [12] relates to PHHs in liver MPS. The data set can be described thus: Albumin production, hepatotoxicant sensitivity, liver MPS. As to conditions: Homo sapiens, 48 h, read-out: EC50, albumin secretion. The class given is cell-based.
Data set [13] deals with PHHs in liver MPS. In words: LDH production, hepatotoxicant sensitivity, liver MPS. Type of data set: cell-based. As to conditions: Homo sapiens, 48 h, read-out: EC50, LDH production.
A further data set has as its system PHHs in the liver MPS. In words: Drug metabolism and phase II metabolites in the liver MPS.
Data set [14] in a line: Stability of glucuronidated diclofenac in maintenance medium at 37°C. The class given is physicochemical. As to conditions: 50 µM.
The conditions of data set [15]: cited from earlier work.

A value given as a limit tells only on which side of the number the result lay.

Usually EC50 stands for the concentration needed to bring the measured effect to its halfway point. Consider `C[C@H]1O[C@@H](O[C@H]2[C@@H](O)C[C@H](O[C@H]3[C@@H](O)C[C@H](O[C@H]4CC[C@@]5(C)[C@H](CC[C@@H]6[C@@H]5C[C@@H](O)[C@]5(C)[C@@H](C7=CC(=O)OC7)CC[C@]65O)C4)O[C@@H]3C)O[C@@H]2C)C[C@H](O)[C@@H]1O` [Digoxin, digoxin], for which the EC50 is 8.1 µM with PHHs in spheroids [1]; 102 µM in data set [5]; 157 µM in data set [6]; 5.4 µM with PHHs in spheroids [7]; 41.6 µM in the data set on PHHs in liver MPS [12]; 146 µM in the data set with PHHs in liver MPS [13]. Besides, the “R, Spearman correlation of CYP3A4 response relative to liver MPS” value is listed as −0.04 in the data set on PHHs in spheroids [2] and […] in data set [8]. Also, the EC50 at 2 days in the data set “in vitro [3]” came to 122 µM; in “in vitro [9]”, 6.4 µM. Besides, the EC50 at 48 h with CYP3A4 [4] worked out at […]; with CYP3A4 [10] it was […]; with CYP3A4 [11] it was […].

Take `CC/C(=C(\c1ccccc1)c1ccc(OCCN(C)C)cc1)c1ccccc1` [Tamoxifen, tamoxifen]: in “in vitro [3]”, a half-maximal effect (EC50 at 2 days) was put at 23.8 µM.

As for `Cc1c(C)c2c(c(C)c1O)CCC(C)(COc1ccc(CC3SC(=O)NC3=O)cc1)O2` (stereo not drawn) [Troglitazone, troglitazone], the EC50 in the data set on PHHs in spheroids [1] came to 94.2 µM; in data set [5], 77.7 µM; in [6], 2.6 µM; in the data set with PHHs in spheroids [7] it was 51.9 µM; in the data set with PHHs in liver MPS [12], 34.6 µM; with PHHs in liver MPS [13] it was 407 µM. Moreover, the entries for the “R, Spearman correlation of CYP3A4 response relative to liver MPS” value (in the data set with PHHs in spheroids [2]; in data set [8]) were 0.80 and 0.77, respectively. In addition, the results for the EC50 at 2 days in “in vitro [3]” and in the data set “in vitro [9]” were 35.1 µM and 67.1 µM, respectively. In addition, the EC50 at 48 h with CYP3A4 [4] stood at […]; in the data set on CYP3A4 [10], […]; in the data set with CYP3A4 [11], […]. Moreover, the “Extent of metabolism of parent in liver MPS medium” value in the data set on PHHs in the liver MPS (50 and 100 µM, 48 h of incubation) is on record as “almost completely metabolized”.

`O=C(O)Cc1ccccc1Nc1c(Cl)cccc1Cl` [diclofenac]: the “Concentration in liver MPS culture medium over time” value with PHHs in the liver MPS (50 µM, 4, 8, 24 and 48 hours) is on record as “decrease over time”.

In the case of `O=C(Cc1ccccc1Nc1c(Cl)cccc1Cl)O[C@@H]1O[C@H](C(=O)O)[C@@H](O)[C@H](O)[C@H]1O` [glucuronidated diclofenac, diclofenac glucuronide], in [14], the “Time of incubation to become unstable in solution” value is no more than 2 h. In addition, in the data set on PHHs in the liver MPS (after 48 h, diclofenac dosed), the “Detection in the MPS medium” value is “not detected”.

For the molecule `C[C@H]1COc2c(N3CCN(C)CC3)c(F)cc3c(=O)c(C(=O)O)cn1c23` [levofloxacin], in data set [15], the Hepatotoxicity entry is “does not cause hepatotoxicity”.

Turning to `N[C@@H]1[C@H]2CN(c3nc4c(cc3F)c(=O)c(C(=O)O)cn4-c3ccc(F)cc3F)C[C@@H]12` [trovafloxacin], the Hepatotoxicity in humans result in data set [15] was “induces idiosyncratic hepatotoxicity”.

The values above are taken from publication PMC8212739 (Clinical and Translational Science, 2021).
